Holding throughout (assay): cell-based
For one assay, the target named is hNav1.7 (Homo sapiens, UniProt Q15858). The assay is classed as cell-based. Conditions: IonWorks Quattro, use-dependent block, hNav1.7; read-out: IWQ Use Nav1.7.
For another assay, the target named is hNav1.5 (Homo sapiens, UniProt Q14524). Conditions: IonWorks Quattro, use-dependent block, hNav1.5; read-out: IWQ Use Nav1.5.
In a further assay the target is hNav1.3 (Homo sapiens, UniProt Q9NY46). Conditions: IonWorks Quattro, use-dependent block, hNav1.3; read-out: IWQ Use Nav1.3.

Positions of bridges follow the written chain, without caps; N, C: chain ends. Non-standard residues stand in square brackets, D forms with d. Residues, ends and D or L forms follow the SMILES beside them. *: point of attachment. Pent4ynoyl = C#CCCC(=O)*; Nva = CCC[C@H](N)C(=O)O; Abu = CC[C@H](N)C(=O)O

Chain of hNav1.5 (Q14524 whole entry, looked up): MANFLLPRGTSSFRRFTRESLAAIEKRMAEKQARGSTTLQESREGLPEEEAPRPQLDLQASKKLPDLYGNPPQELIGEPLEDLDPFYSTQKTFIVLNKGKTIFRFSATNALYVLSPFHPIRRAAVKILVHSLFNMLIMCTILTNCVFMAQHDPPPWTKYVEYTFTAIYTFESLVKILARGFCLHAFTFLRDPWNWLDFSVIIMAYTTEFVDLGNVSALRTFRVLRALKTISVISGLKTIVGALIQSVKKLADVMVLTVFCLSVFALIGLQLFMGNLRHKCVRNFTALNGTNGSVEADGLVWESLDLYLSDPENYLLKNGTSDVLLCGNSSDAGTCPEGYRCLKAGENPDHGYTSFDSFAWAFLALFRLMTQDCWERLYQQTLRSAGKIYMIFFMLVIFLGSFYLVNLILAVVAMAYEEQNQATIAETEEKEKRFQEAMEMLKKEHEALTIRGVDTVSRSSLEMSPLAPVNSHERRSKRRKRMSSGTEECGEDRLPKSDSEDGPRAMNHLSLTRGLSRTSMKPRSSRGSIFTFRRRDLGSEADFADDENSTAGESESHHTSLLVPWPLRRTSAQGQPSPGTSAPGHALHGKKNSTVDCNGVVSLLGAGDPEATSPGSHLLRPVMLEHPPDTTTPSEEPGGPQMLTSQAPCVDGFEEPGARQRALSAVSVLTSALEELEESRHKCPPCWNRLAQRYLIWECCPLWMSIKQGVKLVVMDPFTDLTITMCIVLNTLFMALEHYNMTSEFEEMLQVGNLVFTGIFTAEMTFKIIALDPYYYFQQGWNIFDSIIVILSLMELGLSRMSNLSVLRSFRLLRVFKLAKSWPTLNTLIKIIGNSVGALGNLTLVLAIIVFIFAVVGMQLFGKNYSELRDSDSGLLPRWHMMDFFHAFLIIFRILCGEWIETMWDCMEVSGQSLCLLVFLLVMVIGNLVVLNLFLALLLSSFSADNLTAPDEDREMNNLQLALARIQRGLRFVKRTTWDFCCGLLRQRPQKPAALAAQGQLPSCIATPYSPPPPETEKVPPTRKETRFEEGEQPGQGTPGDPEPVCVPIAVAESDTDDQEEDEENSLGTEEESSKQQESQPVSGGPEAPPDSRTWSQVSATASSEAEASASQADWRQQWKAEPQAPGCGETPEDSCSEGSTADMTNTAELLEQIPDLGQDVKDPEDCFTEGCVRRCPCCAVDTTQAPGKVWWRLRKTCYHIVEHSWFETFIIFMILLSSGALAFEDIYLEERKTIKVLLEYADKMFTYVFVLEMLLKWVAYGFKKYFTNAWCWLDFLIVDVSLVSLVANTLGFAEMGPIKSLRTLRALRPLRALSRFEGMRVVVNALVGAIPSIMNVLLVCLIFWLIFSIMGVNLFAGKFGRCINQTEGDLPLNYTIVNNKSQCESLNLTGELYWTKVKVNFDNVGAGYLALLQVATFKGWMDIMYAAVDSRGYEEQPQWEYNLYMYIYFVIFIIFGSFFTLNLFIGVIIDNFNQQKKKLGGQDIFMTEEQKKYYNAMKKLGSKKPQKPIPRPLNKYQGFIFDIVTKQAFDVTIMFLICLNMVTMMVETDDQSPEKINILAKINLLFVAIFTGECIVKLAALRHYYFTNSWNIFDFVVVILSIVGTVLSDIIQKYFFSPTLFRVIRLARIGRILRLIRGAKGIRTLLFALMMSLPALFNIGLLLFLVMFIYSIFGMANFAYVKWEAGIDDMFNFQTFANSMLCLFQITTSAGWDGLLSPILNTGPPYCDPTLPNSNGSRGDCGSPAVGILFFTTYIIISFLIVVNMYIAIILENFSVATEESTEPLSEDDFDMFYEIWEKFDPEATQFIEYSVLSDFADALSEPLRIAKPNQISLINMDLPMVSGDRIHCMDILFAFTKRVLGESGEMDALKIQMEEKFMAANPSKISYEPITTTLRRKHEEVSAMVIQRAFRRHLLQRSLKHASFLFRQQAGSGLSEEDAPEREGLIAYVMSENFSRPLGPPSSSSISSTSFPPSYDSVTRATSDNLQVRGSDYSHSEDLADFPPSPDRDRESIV
Chain of hNav1.7 (Q15858 whole entry, looked up): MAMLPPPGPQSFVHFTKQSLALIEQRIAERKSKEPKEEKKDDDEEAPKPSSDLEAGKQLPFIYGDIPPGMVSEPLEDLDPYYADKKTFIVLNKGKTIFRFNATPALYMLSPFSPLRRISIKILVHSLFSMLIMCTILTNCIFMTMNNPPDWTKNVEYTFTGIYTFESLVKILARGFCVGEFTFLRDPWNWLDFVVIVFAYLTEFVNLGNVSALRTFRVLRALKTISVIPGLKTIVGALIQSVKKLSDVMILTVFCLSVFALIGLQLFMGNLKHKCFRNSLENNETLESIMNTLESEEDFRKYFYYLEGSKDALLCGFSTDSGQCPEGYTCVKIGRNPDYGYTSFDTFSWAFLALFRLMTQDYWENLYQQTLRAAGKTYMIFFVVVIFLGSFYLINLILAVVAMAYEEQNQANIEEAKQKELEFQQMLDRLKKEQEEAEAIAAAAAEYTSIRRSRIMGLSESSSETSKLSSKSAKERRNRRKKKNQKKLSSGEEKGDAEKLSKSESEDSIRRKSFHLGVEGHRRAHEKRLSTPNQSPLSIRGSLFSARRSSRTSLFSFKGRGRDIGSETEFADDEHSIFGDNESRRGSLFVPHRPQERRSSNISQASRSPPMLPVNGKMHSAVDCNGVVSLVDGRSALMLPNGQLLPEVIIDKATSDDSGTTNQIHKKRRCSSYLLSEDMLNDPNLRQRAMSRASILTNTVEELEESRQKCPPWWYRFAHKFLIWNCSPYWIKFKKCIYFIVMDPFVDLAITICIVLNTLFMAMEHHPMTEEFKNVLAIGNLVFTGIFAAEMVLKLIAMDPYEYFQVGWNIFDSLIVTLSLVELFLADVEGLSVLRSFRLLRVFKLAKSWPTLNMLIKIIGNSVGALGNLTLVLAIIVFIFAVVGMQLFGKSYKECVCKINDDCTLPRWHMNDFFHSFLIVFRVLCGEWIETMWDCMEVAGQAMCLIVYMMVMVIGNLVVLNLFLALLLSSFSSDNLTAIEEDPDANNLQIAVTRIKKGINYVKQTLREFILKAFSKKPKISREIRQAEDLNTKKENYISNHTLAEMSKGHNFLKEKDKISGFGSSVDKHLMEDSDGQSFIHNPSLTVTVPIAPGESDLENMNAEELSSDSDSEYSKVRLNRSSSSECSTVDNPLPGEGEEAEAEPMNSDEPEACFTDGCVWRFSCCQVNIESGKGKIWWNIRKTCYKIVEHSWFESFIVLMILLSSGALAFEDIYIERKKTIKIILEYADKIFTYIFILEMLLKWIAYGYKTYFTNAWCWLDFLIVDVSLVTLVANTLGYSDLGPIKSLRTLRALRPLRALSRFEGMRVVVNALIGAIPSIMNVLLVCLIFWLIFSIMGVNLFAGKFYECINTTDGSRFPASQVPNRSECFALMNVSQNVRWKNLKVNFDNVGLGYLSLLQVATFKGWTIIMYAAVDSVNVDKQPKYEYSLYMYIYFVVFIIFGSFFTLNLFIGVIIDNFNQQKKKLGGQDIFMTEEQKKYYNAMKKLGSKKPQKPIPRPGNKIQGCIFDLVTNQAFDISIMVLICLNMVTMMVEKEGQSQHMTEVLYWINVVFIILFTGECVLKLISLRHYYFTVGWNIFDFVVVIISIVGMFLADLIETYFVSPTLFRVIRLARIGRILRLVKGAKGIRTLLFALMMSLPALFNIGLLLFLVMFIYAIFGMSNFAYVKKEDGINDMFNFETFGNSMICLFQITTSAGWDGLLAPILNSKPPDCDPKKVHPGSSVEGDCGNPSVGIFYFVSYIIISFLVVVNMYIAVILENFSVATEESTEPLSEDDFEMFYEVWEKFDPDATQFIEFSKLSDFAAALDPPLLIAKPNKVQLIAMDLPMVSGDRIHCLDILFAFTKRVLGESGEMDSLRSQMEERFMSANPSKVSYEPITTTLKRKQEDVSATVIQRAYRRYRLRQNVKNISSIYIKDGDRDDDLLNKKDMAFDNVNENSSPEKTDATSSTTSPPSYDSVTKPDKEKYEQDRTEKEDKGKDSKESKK

With `CC(C)C[C@@H]1NC(=O)[C@@H](NC(=O)[C@@H](N)CC(=O)O)CSSC[C@@H]2NC(=O)[C@@H]3CSSC[C@@H](C(=O)N[C@@H](CCCCN)C(=O)N[C@@H](Cc4ccc(O)cc4)C(=O)N[C@H](C(=O)N[C@@H](Cc4ccccc4)C(N)=O)C(C)C)NC(=O)[C@H](Cc4c[nH]c5ccccc45)NC(=O)[C@H](CCCCN)NC(=O)[C@H](Cc4c[nH]cn4)NC(=O)[C@H]([C@@H](C)O)NC(=O)[C@H](CCCNC(=N)N)NC(=O)[C@H](CO)NC(=O)[C@H](CSSC[C@H](NC(=O)[C@H](CCCCN)NC(=O)[C@H](CCCNC(=N)N)NC(=O)[C@H](Cc4ccccc4)NC(=O)CNC(=O)CNC1=O)C(=O)N[C@@H](CCC(=O)O)C(=O)N1CCC[C@H]1C(=O)N[C@@H](CC(=O)O)C(=O)N[C@@H](CC(N)=O)C(=O)N[C@@H](CC(=O)O)C(=O)N[C@@H](CCCCN)C(=O)N3)NC(=O)[C@H](C(C)C)NC(=O)[C@H](CC(C)C)NC(=O)[C@H](CC(N)=O)NC(=O)[C@@H]1CCCN1C(=O)[C@H](CCCNC(=N)N)NC2=O` [compound 754] (H-DCLGGFRKCEPDNDKCCRPNLVCSRTHKWCKYVF-NH2; disulfide 2-17, 9-23, 16-30), the IC50 on hNav1.7 was found to be 350 nM; on hNav1.5, 34200 nM; on hNav1.3, 330 nM.

As for `CC[C@H](C)[C@@H]1NC(=O)[C@@H]2CSSC[C@@H]3NC(=O)[C@H](C(C)C)NC(=O)[C@H](CC(C)C)NC(=O)[C@H](CC(N)=O)NC(=O)[C@@H]4CCCN4C(=O)[C@H](CCCNC(=N)N)NC(=O)[C@H](CSSC[C@H](NC(=O)[C@@H](N)CC(=O)O)C(=O)N[C@@H](CC(C)C)C(=O)NCC(=O)NCC(=O)N[C@@H](Cc4ccccc4)C(=O)N[C@@H](CCCNC(=N)N)C(=O)N[C@@H](CCCCN)C(=O)N2)NC(=O)[C@H](CSSC[C@@H](C(=O)N[C@@H](CCCCN)C(=O)N[C@@H](Cc2ccc(O)cc2)C(=O)N[C@H](C(=O)N[C@@H](Cc2ccccc2)C(N)=O)C(C)C)NC(=O)[C@H](Cc2c[nH]c4ccccc24)NC(=O)[C@H](CCC(=O)O)NC(=O)[C@H](Cc2c[nH]cn2)NC(=O)[C@H]([C@@H](C)O)NC(=O)[C@H](CCCNC(=N)N)NC(=O)[C@H](CO)NC3=O)NC(=O)[C@H](CCCCN)NC(=O)[C@H](CC(=O)O)NC(=O)[C@H](CC(N)=O)NC(=O)[C@H](CC(=O)O)NC(=O)[C@@H]2CCCN2C1=O` [compound 755] (H-DCLGGFRKCIPDNDKCCRPNLVCSRTHEWCKYVF-NH2; disulfide 2-17, 9-23, 16-30), the results for the IC50 on hNav1.7, on hNav1.5 and on hNav1.3 were above 5000 nM, 15300 nM and above 5000 nM, respectively.

On to `C#CCCC(=O)N[C@@H](CC(=O)O)C(=O)N[C@H]1CSSC[C@@H]2NC(=O)[C@@H]3CSSC[C@@H](C(=O)N[C@@H](CCCCN)C(=O)N[C@@H](Cc4ccc(O)cc4)C(=O)N[C@H](C(=O)N[C@@H](Cc4ccccc4)C(N)=O)C(C)C)NC(=O)[C@H](Cc4c[nH]c5ccccc45)NC(=O)[C@H](CCCNC(=N)N)NC(=O)[C@H](Cc4c[nH]cn4)NC(=O)[C@H]([C@@H](C)O)NC(=O)[C@H](CCCNC(=N)N)NC(=O)[C@H](CO)NC(=O)[C@H](CSSC[C@H](NC(=O)[C@H](CCCCN)NC(=O)[C@H](CCCNC(=N)N)NC(=O)[C@H](Cc4ccccc4)NC(=O)[C@H](C)NC(=O)CNC(=O)[C@H](CC(C)C)NC1=O)C(=O)N[C@@H]([C@@H](C)CC)C(=O)N1CCC[C@H]1C(=O)N[C@@H](CC(=O)O)C(=O)N[C@@H](CC)C(=O)N[C@@H](CC(=O)O)C(=O)N[C@@H](CCCCN)C(=O)N3)NC(=O)[C@H](C(C)C)NC(=O)[C@H](CC(C)C)NC(=O)[C@H](CC(N)=O)NC(=O)[C@@H]1CCCN1C(=O)[C@H](CCCNC(=N)N)NC2=O` [compound 756] (Pent4ynoyl-DCLGAFRKCIPD[Abu]DKCCRPNLVCSRTHRWCKYVF-NH2; disulfide 2-17, 9-23, 16-30), for which the IC50 stood at 180 nM at hNav1.7, 44400 nM on hNav1.5 and 260 nM on hNav1.3.

Take `C#CCCC(=O)N[C@@H](CC(=O)O)C(=O)N[C@H]1CSSC[C@@H]2NC(=O)[C@@H]3CSSC[C@@H](C(=O)N[C@@H](CCCCN)C(=O)N[C@@H](Cc4ccc(O)cc4)C(=O)N[C@H](C(=O)N[C@@H](Cc4ccccc4)C(N)=O)C(C)C)NC(=O)[C@H](Cc4c[nH]c5ccccc45)NC(=O)[C@H](CCCCN)NC(=O)[C@H](Cc4c[nH]cn4)NC(=O)[C@H]([C@@H](C)O)NC(=O)[C@H](CCCNC(=N)N)NC(=O)[C@H](CO)NC(=O)[C@H](CSSC[C@H](NC(=O)[C@H](CCCCN)NC(=O)[C@H](CCCNC(=N)N)NC(=O)[C@H](Cc4ccccc4)NC(=O)[C@H](C)NC(=O)CNC(=O)[C@H](CC(C)C)NC1=O)C(=O)N[C@@H]([C@@H](C)CC)C(=O)N1CCC[C@H]1C(=O)N[C@@H](CC(=O)O)C(=O)N[C@@H](CC)C(=O)N[C@@H](CC(=O)O)C(=O)N[C@@H](CCCCN)C(=O)N3)NC(=O)[C@H](C(C)C)NC(=O)[C@H](CC(C)C)NC(=O)[C@H](CC(N)=O)NC(=O)[C@@H]1CCCN1C(=O)[C@H](CCCNC(=N)N)NC2=O` [compound 757] (Pent4ynoyl-DCLGAFRKCIPD[Abu]DKCCRPNLVCSRTHKWCKYVF-NH2; disulfide 2-17, 9-23, 16-30): the IC50 at hNav1.7 worked out at 710 nM; on hNav1.5, 34900 nM; on hNav1.3, 280 nM.

Take `C#CCCC(=O)N[C@@H](CC(=O)O)C(=O)N[C@H]1CSSC[C@@H]2NC(=O)[C@@H]3CSSC[C@@H](C(=O)N[C@@H](CCCCN)C(=O)N[C@@H](Cc4ccc(O)cc4)C(=O)N[C@H](C(=O)N[C@@H](Cc4ccccc4)C(N)=O)C(C)C)NC(=O)[C@H](Cc4c[nH]c5ccccc45)NC(=O)[C@H](CCCCN)NC(=O)[C@H](Cc4c[nH]cn4)NC(=O)[C@H]([C@@H](C)O)NC(=O)[C@H](CCCNC(=N)N)NC(=O)[C@H](CO)NC(=O)[C@H](CSSC[C@H](NC(=O)[C@H](CCCCN)NC(=O)[C@H](CCCNC(=N)N)NC(=O)[C@H](CC(C)C)NC(=O)[C@H](CC)NC(=O)CNC(=O)[C@H](CC(C)C)NC1=O)C(=O)N[C@@H]([C@@H](C)CC)C(=O)N1CCC[C@H]1C(=O)N[C@@H](CC(=O)O)C(=O)N[C@@H](CC)C(=O)N[C@@H](CC(=O)O)C(=O)N[C@@H](CCCCN)C(=O)N3)NC(=O)[C@H](C(C)C)NC(=O)[C@H](CC(C)C)NC(=O)[C@H](CC(N)=O)NC(=O)[C@@H]1CCCN1C(=O)[C@H](CCCNC(=N)N)NC2=O` [compound 758] (Pent4ynoyl-DCLG[Abu]LRKCIPD[Abu]DKCCRPNLVCSRTHKWCKYVF-NH2; disulfide 2-17, 9-23, 16-30): the IC50 worked out at 460 nM at hNav1.7, 32700 nM at hNav1.5 and 690 nM on hNav1.3.

Turning to `C#CCCC(=O)N[C@@H](CC(=O)O)C(=O)N[C@H]1CSSC[C@@H]2NC(=O)[C@@H]3CSSC[C@@H](C(=O)N[C@@H](CCCCN)C(=O)N[C@@H](Cc4ccc(O)cc4)C(=O)N[C@H](C(=O)N[C@@H](Cc4ccccc4)C(N)=O)C(C)C)NC(=O)[C@H](Cc4c[nH]c5ccccc45)NC(=O)[C@H](CCCNC(=N)N)NC(=O)[C@H](Cc4c[nH]cn4)NC(=O)[C@H]([C@@H](C)O)NC(=O)[C@H](CCCNC(=N)N)NC(=O)[C@H](CO)NC(=O)[C@H](CSSC[C@H](NC(=O)[C@H](CCCCN)NC(=O)[C@H](CCCNC(=N)N)NC(=O)[C@H](CC(C)C)NC(=O)[C@H](CCC)NC(=O)CNC(=O)[C@H](CC(C)C)NC1=O)C(=O)N[C@@H]([C@@H](C)CC)C(=O)N1CCC[C@H]1C(=O)N[C@@H](CC(=O)O)C(=O)N[C@@H](CC)C(=O)N[C@@H](CC(=O)O)C(=O)N[C@@H](CCCCN)C(=O)N3)NC(=O)[C@H](C(C)C)NC(=O)[C@H](CC(C)C)NC(=O)[C@H](CC(N)=O)NC(=O)[C@@H]1CCCN1C(=O)[C@H](CCCNC(=N)N)NC2=O` [compound 759] (Pent4ynoyl-DCLG[Nva]LRKCIPD[Abu]DKCCRPNLVCSRTHRWCKYVF-NH2; disulfide 2-17, 9-23, 16-30), the IC50 on hNav1.7 came to 100 nM; on hNav1.5 it was 46200 nM; at hNav1.3, 230 nM.

Take `C#CCCC(=O)N[C@@H](CC(=O)O)C(=O)N[C@H]1CSSC[C@@H]2NC(=O)[C@@H]3CSSC[C@@H](C(=O)N[C@@H](CCCCN)C(=O)N[C@@H](Cc4ccc(O)cc4)C(=O)N[C@H](C(=O)N[C@@H](Cc4ccccc4)C(N)=O)C(C)C)NC(=O)[C@H](Cc4c[nH]c5ccccc45)NC(=O)[C@H](CCCCN)NC(=O)[C@H](Cc4c[nH]cn4)NC(=O)[C@H]([C@@H](C)O)NC(=O)[C@H](CCCNC(=N)N)NC(=O)[C@H](CO)NC(=O)[C@H](CSSC[C@H](NC(=O)[C@H](CCCCN)NC(=O)[C@H](CCCNC(=N)N)NC(=O)[C@H](CC(C)C)NC(=O)[C@H](CCC)NC(=O)CNC(=O)[C@H](CC(C)C)NC1=O)C(=O)N[C@@H]([C@@H](C)CC)C(=O)N1CCC[C@H]1C(=O)N[C@@H](CC(=O)O)C(=O)N[C@@H](CC)C(=O)N[C@@H](CC(=O)O)C(=O)N[C@@H](CCCCN)C(=O)N3)NC(=O)[C@H](C(C)C)NC(=O)[C@H](CC(C)C)NC(=O)[C@H](CC(N)=O)NC(=O)[C@@H]1CCCN1C(=O)[C@H](CCCNC(=N)N)NC2=O` [compound 760] (Pent4ynoyl-DCLG[Nva]LRKCIPD[Abu]DKCCRPNLVCSRTHKWCKYVF-NH2; disulfide 2-17, 9-23, 16-30): the IC50 at hNav1.7 is 190 nM; at hNav1.5, 35200 nM; at hNav1.3 it was 250 nM.
